{
  "source": "paper PMC9145754",
  "about": "“Novel Soloxolone Amides as Potent Anti-Glioblastoma Candidates: Design, Synthesis, In Silico Analysis and Biological Activities In Vitro and In Vivo” (Pharmaceuticals, 2022)",
  "key": {"U87 cells [1]": {"test_system": "U87 cells", "experiment": "Mitochondrial membrane potential/apoptosis, MitoTracker Red and Annexin V", "type": "cell-based, human", "conditions": "U87, 12 at 4 µM, control 5.7%", "procedure": "In order to doublecheck the ΔψM-targeted effect of 12 and to assess the correlation between dissipation of ΔψM and induction of apoptosis in triterpenoid-treated glioblastoma cells, U87 cells were incubated with 12 at 4 µM for 6–24 h followed by their staining with a mix of MitoTracker Red, a fluorescent dye accumulated within mitochondria depending on their ΔψM, and fluorophore-conjugated annexin V, used to visualize apoptotic cells.\n[…] cells plated in 6-well plates were treated with 12 at 4 μM for 6, 18 and 24 h and stained using a Mitochondrial Membrane Potential/Annexin V Apoptsis Kit (Molecular Probes, USA) according to the manufacturer’s instructions. Briefly, harvested cells were incubated in Annexin-binding buffer containing MitoTracker Red at 40 nM for 30 min under standard conditions. After that, the cells were washed with PBS, resuspended in Annexin-binding buffer containing 5 µL of Annexin V-Alexa Fluor 488 and incubated at room temperature for 15 min. After the incubation time, the cells were analyzed by flow cytometry. For each sample, 10,000 events were acquired."}, "U87 cells [2]": {"test_system": "U87 cells", "experiment": "Cytotoxicity of 12 with chloroquine (MTT)", "type": "cell-based", "conditions": "U87, 12 with chloroquine 50 µM, 24 h", "procedure": "Given that pentacyclic triterpenoids can induce tumor cell death not only by the apoptotic pathway but also by triggering autophagy, we next studied whether 12 stimulated autophagy in glioblastoma cells. For this, U87 and U118 cells were incubated with tryptamide 12 at toxic concentrations (2 or 4 µM) for 24 h followed by cell staining with monodansylcadaverine (MDC), a fluorescent dye specifically labeling autophagosomes. […] Considering that autophagy can be associated not only with cell death but also with cytoprotection, its role in the cytotoxicity of 12 in glioblastoma cells was further studied.\nIn order to evaluate whether autophagy plays an important role in compound 12-induced glioblastoma cell death, U87 cells were seeded in quadruplicate at a density of 1 × 10^4 cells/well in 96-well plates, incubated overnight under standard conditions and co-treated with 12 at 1–5 μM and chloroquine (CQ) at 50 μM for 24 h. Then, cell viability was measured using an MTT test and the curves of cytotoxicity of 12 in the presence or absence of CQ were compared."}, "U118 cells": {"test_system": "U118 cells", "experiment": "Mitochondrial membrane potential, JC-1", "type": "cell-based, human", "conditions": "for percentage of U118 cells with collapsed ΔψM: 12 at 4 µM, JC-1, control 4.7%", "procedure": "It is known that structural analogs of compound 12, such as SM, bardoxolone methyl and CDDO-Im, trigger the mitochondrial pathway of apoptosis in tumor cells, leading to significant dissipation of mitochondrial membrane potential (ΔψM). To evaluate the ability of 12 to affect ΔψM in glioblastoma cells, U118 cells were incubated with 12 (4 µM) for 6 and 24 h and stained with JC-1, a fluorescent probe accumulated either within highly polarized mitochondria emitting red fluorescence (JC-1 aggregates) or in cytoplasm, in the case of low ΔψM (JC-1 monomers, green fluorescence).\n[…] were cultured in 6-well plates for 24 h, incubated overnight under standard conditions and treated with 12 at 4 μM for 6 and 24 h. Thereafter, the cells were harvested, resuspended at 10^6 cell/mL in JC-1-containing PBS (5 µg/mL) and incubated under standard conditions for 30 min followed by the washing of the cells with PBS and flow cytometry analysis. In total, 10,000 events were acquired for each sample."}, "U87 cells [3]": {"test_system": "U87 cells", "experiment": "Vasculogenic mimicry on Matrigel", "type": "cell-based, human", "conditions": "12 at 200 nM, 5 h", "procedure": "Considering that vasculogenic mimicry (VM), a process whereby tumor cells form tumor cell-lined vasculatures to reinforce blood supply to cancerous tissue, plays a crucial role in glioblastoma progression and aggressiveness and that some pentacyclic triterpenoids can inhibit this process, next we studied whether 12 affects VM in glioblastoma cells.\nA 96-well plate was placed on ice for pre-cooling and Matrigel®® Matrix (Corning, Corning, NY, USA) was thawed at 4 °C and added to each well of the plate (50 μL/well). Then, the plate was placed at 37 °C in 5% CO2 for 1 h to solidify the Matrigel. U87 cells were seeded at 2 × 10^4 cells/well on the Matrigel-coated wells and treated with 12 at 200 nM for 5 h. At the end of the incubation time, each well was analyzed under a microscope with a phase contrast Primo Vert (ZEISS, Germany). Tubular structures in each field were imaged with a AxioCam ERc5s camera (ZEISS, Germany) and the average number of tubules from three to four random fields in each well was quantified by ImageJ. The experiment was performed in triplicate."}},
  "data": [
    {"smiles": "CC1(C)C(=O)C(C#N)=C[C@]2(C)C3=CC(=O)[C@@H]4[C@@H]5C[C@@](C)(C(=O)NCCc6c[nH]c7ccccc67)CC[C@]5(C)CC[C@@]4(C)[C@]3(C)CC[C@@H]12", "note": "[compound 12]", "values": [
      {"measurement": "percentage of apoptotic cells with dissipated ΔψM", "setting": "U87 cells [1]; 6 h", "result": 12.2, "unit": "%"},
      {"measurement": "percentage of apoptotic cells with dissipated ΔψM", "setting": "U87 cells [1]; 18 h", "result": 18.7, "unit": "%"},
      {"measurement": "percentage of apoptotic cells with dissipated ΔψM", "setting": "U87 cells [1]; 24 h", "result": 28, "unit": "%"},
      {"measurement": "effect of chloroquine on cytotoxic activity of 12", "setting": "U87 cells [2]", "result": "did not affect the cytotoxic activity"},
      {"measurement": "percentage of U118 cells with collapsed ΔψM", "setting": "U118 cells; 6 h", "result": 7.5, "unit": "%"},
      {"measurement": "percentage of U118 cells with collapsed ΔψM", "setting": "U118 cells; 24 h", "result": 20.4, "unit": "%"},
      {"measurement": "JC-1 aggregate/monomer ratios", "setting": "U118 cells; U118, 12 at 4 µM", "result": "significantly reduced"},
      {"measurement": "decrease in numbers of tubular structures compared with untreated cells", "setting": "U87 cells [3]", "result": 2.2, "unit": "fold"}
    ]}
  ]
}
